Measurements reported in PubChem BioAssay AID2060610 (Molecular Pharmacology Branch, DTP, NCI, 2025).

Test system: 616215-338-R-J1-PDC complex spheroids, viability % test/control
Test: Anticancer human tumor 616215-338-R-J1-PDC patient-derived colon adenocarcinoma cell line growth inhibition [CLK]
Conditions: for IC50: curve of first compound; for viability, T/C: stronger effect = lower value; active = viability on the fitted dose curve at most 10% of control; inactive = the rest
How it was run: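 Patient-derived tumor cells grown as complex spheroids with HUVEC endothelial cells and mesenchymal stem cells, treated with drug combinations. Concentrations descend in half-log steps from near clinical Cmax, or from 10 microM if Cmax unknown.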

[1] = second compound 0.0316 µM, first compound 0.0316 µM
[2] = second compound 0.0316 µM, first compound 0.1 µM
[3] = second compound 0.0316 µM, first compound 0.316 µM
[4] = second compound 0.0316 µM, first compound 1 µM
[5] = second compound 0.0316 µM, first compound 3.16 µM
[6] = second compound 0.0316 µM, first compound 10 µM
[7] = second compound 0.1 µM, first compound 0.0316 µM
[8] = second compound 0.1 µM, first compound 0.1 µM
[9] = second compound 0.1 µM, first compound 0.316 µM
[10] = second compound 0.1 µM, first compound 1 µM
[11] = second compound 0.1 µM, first compound 3.16 µM
[12] = second compound 0.1 µM, first compound 10 µM
[13] = second compound 0.316 µM, first compound 0.0316 µM
[14] = second compound 0.316 µM, first compound 0.1 µM
[15] = second compound 0.316 µM, first compound 0.316 µM
[16] = second compound 0.316 µM, first compound 1 µM
[17] = second compound 0.316 µM, first compound 3.16 µM
[18] = second compound 0.316 µM, first compound 10 µM
[19] = second compound 1 µM, first compound 0.0316 µM
[20] = second compound 1 µM, first compound 0.1 µM
[21] = second compound 1 µM, first compound 0.316 µM
[22] = second compound 1 µM, first compound 1 µM
[23] = second compound 1 µM, first compound 3.16 µM
[24] = second compound 1 µM, first compound 10 µM
[25] = second compound 3.16 µM, first compound 0.0316 µM
[26] = second compound 3.16 µM, first compound 0.1 µM
[27] = second compound 3.16 µM, first compound 0.316 µM
[28] = second compound 3.16 µM, first compound 1 µM
[29] = second compound 3.16 µM, first compound 3.16 µM
[30] = second compound 3.16 µM, first compound 10 µM
[31] = second compound 10 µM, first compound 0.0316 µM
[32] = second compound 10 µM, first compound 0.1 µM
[33] = second compound 10 µM, first compound 0.316 µM
[34] = second compound 10 µM, first compound 1 µM
[35] = second compound 10 µM, first compound 3.16 µM
[36] = second compound 10 µM, first compound 10 µM
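Note: spheroids exposed to agents for 7 days.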
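Throughout, for viability, T/C: 100% = DMSO vehicle wells.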

CC(CO)NC(=O)c1cc(-c2ccc(Cl)cc2)nn(-c2cnn(C)c2)c1=O (stereo not drawn) + CNC(=O)c1ccc(Nc2nc(OC3CCCC3)c3c(-c4ccc5nc(C)oc5c4)c[nH]c3n2)c(OC)c1
inactive: viability, T/C [1] 85.1% | viability, T/C [2] 89% | viability, T/C [3] 89.2% | viability, T/C [4] 92.8% | viability, T/C [5] 91.1% | viability, T/C [6] 97.5% | viability, T/C [7] 58.9% | viability, T/C [8] 57.9% | viability, T/C [9] 48.7% | viability, T/C [10] 45.9% | viability, T/C [11] 50.6% | viability, T/C [12] 43.4% | viability, T/C [13] 36.4% | viability, T/C [14] 45.8% | viability, T/C [15] 40.2% | viability, T/C [16] 38.6% | viability, T/C [17] 48% | viability, T/C [18] 40.2% | viability, T/C [19] 43.5% | viability, T/C [20] 46% | viability, T/C [21] 46.3% | viability, T/C [22] 41.8% | viability, T/C [23] 44.2% | viability, T/C [24] 35.3% | viability, T/C [25] 45% | viability, T/C [26] 45.4% | viability, T/C [27] 36.2% | viability, T/C [28] 38.4% | viability, T/C [29] 31.7% | viability, T/C [30] 30.3% | viability, T/C [31] 43.4% | viability, T/C [32] 43.4% | viability, T/C [33] 34.3% | viability, T/C [34] 30.3% | viability, T/C [35] 34.3% | viability, T/C [36] 39.5%
487 nM: IC50 (second compound 0.1 µM)
> 10000 nM: IC50 (second compound 0.0316 µM)
< 31.6 nM: IC50 (second compound 0.316 µM) | IC50 (second compound 1 µM) | IC50 (second compound 3.16 µM) | IC50 (second compound 10 µM)

O=C(c1cc(Cc2n[nH]c(=O)c3ccccc23)ccc1F)N1CCN(C(=O)C2CC2)CC1 + CNC(=O)c1ccc(Nc2nc(OC3CCCC3)c3c(-c4ccc5nc(C)oc5c4)c[nH]c3n2)c(OC)c1
> 10000 nM: IC50 (second compound 0.0316 µM) | IC50 (second compound 0.1 µM)
< 31.6 nM: IC50 (second compound 0.316 µM) | IC50 (second compound 1 µM) | IC50 (second compound 3.16 µM) | IC50 (second compound 10 µM)
inactive: viability, T/C [1] 107% | viability, T/C [2] 98.9% | viability, T/C [3] 92.3% | viability, T/C [4] 99.7% | viability, T/C [5] 96.1% | viability, T/C [6] 110% | viability, T/C [7] 59% | viability, T/C [8] 63.5% | viability, T/C [9] 56% | viability, T/C [10] 57.2% | viability, T/C [11] 51.2% | viability, T/C [12] 63.9% | viability, T/C [13] 42.1% | viability, T/C [14] 61.1% | viability, T/C [15] 49.5% | viability, T/C [16] 45.2% | viability, T/C [17] 50% | viability, T/C [18] 56.6% | viability, T/C [19] 45.1% | viability, T/C [20] 51.3% | viability, T/C [21] 42.4% | viability, T/C [22] 49.3% | viability, T/C [23] 52.6% | viability, T/C [24] 49.8% | viability, T/C [25] 45.5% | viability, T/C [26] 38.5% | viability, T/C [27] 42.4% | viability, T/C [28] 42.2% | viability, T/C [29] 55.4% | viability, T/C [30] 41.6% | viability, T/C [31] 39.1% | viability, T/C [32] 41.8% | viability, T/C [33] 42.8% | viability, T/C [34] 47.8% | viability, T/C [35] 40.8% | viability, T/C [36] 39.8%

COC1C=CCC(C)C(C)S(=O)(=O)NC(=O)c2ccc3c(c2)N(CC2CCC21)CC1(CCCc2cc(Cl)ccc21)CO3 (stereo not drawn) + CNC(=O)c1ccc(Nc2nc(OC3CCCC3)c3c(-c4ccc5nc(C)oc5c4)c[nH]c3n2)c(OC)c1
< 31.6 nM: IC50 (second compound 0.316 µM) | IC50 (second compound 1 µM) | IC50 (second compound 3.16 µM) | IC50 (second compound 10 µM)
4640 nM: IC50 (second compound 0.1 µM)
inactive: viability, T/C [1] 95.9% | viability, T/C [2] 95.1% | viability, T/C [3] 94% | viability, T/C [4] 86.2% | viability, T/C [5] 104% | viability, T/C [6] 52.3% | viability, T/C [7] 56.5% | viability, T/C [8] 57% | viability, T/C [9] 57.6% | viability, T/C [10] 60.9% | viability, T/C [11] 59% | viability, T/C [12] 34% | viability, T/C [13] 37.2% | viability, T/C [14] 43.9% | viability, T/C [15] 33% | viability, T/C [16] 25.7% | viability, T/C [17] 19.6% | viability, T/C [18] 20.4% | viability, T/C [19] 35.1% | viability, T/C [20] 39.7% | viability, T/C [21] 34.3% | viability, T/C [22] 26.4% | viability, T/C [23] 21.5% | viability, T/C [24] 17.1% | viability, T/C [25] 41.6% | viability, T/C [26] 41% | viability, T/C [27] 34.5% | viability, T/C [28] 27.2% | viability, T/C [29] 22.8% | viability, T/C [30] 20.3% | viability, T/C [31] 40.7% | viability, T/C [32] 33.7% | viability, T/C [33] 29.8% | viability, T/C [34] 26.5% | viability, T/C [35] 19.6% | viability, T/C [36] 17.3%
> 10000 nM: IC50 (second compound 0.0316 µM)

CC1COCCN1c1cc(C2(S(C)(=N)=O)CC2)nc(-c2ccnc3[nH]ccc23)n1 (stereo not drawn) + CNC(=O)c1ccc(Nc2nc(OC3CCCC3)c3c(-c4ccc5nc(C)oc5c4)c[nH]c3n2)c(OC)c1
> 10000 nM: IC50 (second compound 0.0316 µM)
1220 nM: IC50 (second compound 0.1 µM)
inactive: viability, T/C [1] 95.5% | viability, T/C [2] 91.2% | viability, T/C [3] 90.9% | viability, T/C [4] 98.4% | viability, T/C [5] 101% | viability, T/C [6] 78.7% | viability, T/C [7] 53.4% | viability, T/C [8] 57.4% | viability, T/C [9] 52.6% | viability, T/C [10] 51.8% | viability, T/C [11] 44.8% | viability, T/C [12] 36.6% | viability, T/C [13] 48.3% | viability, T/C [14] 45.4% | viability, T/C [15] 51.5% | viability, T/C [16] 46.7% | viability, T/C [17] 56.9% | viability, T/C [18] 36.1% | viability, T/C [19] 54.5% | viability, T/C [20] 44% | viability, T/C [21] 47% | viability, T/C [22] 46.4% | viability, T/C [23] 44.5% | viability, T/C [24] 31.7% | viability, T/C [25] 49.7% | viability, T/C [26] 49.6% | viability, T/C [27] 46.3% | viability, T/C [28] 39.8% | viability, T/C [29] 37.7% | viability, T/C [30] 29.5% | viability, T/C [31] 43.1% | viability, T/C [32] 37.4% | viability, T/C [33] 40.9% | viability, T/C [34] 36.9% | viability, T/C [35] 33.3% | viability, T/C [36] 30.9%
42 nM: IC50 (second compound 3.16 µM)
< 31.6 nM: IC50 (second compound 0.316 µM) | IC50 (second compound 1 µM) | IC50 (second compound 10 µM)
